Results from publication PMC6853232, “Discovery and evaluation of novel synthetic 5-alkyl-4-oxo-4,5-dihydro-[1,2,4]triazolo[4,3-a]quinoxaline-1-carbox-amide derivatives as anti-inflammatory agents” (Journal of Enzyme Inhibition and Medicinal Chemistry, 2019).

Columns and labels:
Type in all cases: cell-based, mouse
[1] = MTT assay for cell viability; conditions: mouse, RAW264.7 macrophage cells; 30 μM, 24 h, RAW264.7 cells
Method: The RAW 264.7 mouse macrophage cell line was obtained from the China Cell Line Bank (Beijing, China). Cells were cultured in complete medium (DMEM supplemented with 10% heat-inactivated FBS, 3 mM glutamine and antibiotics (100 U/mL penicillin and 100 U/mL streptomycin)) at 37 °C in a humidified incubator containing 5% CO2 and 95% air. […]
Cell viability studies induced by synthesised compounds were evaluated by 3-(4,5-dimethylthiazol-2-yl)-2,5-diphenyltetrazolium bromide (MTT) assay. RAW264.7 macrophages were seeded in 96-well plates at a density of 5 × 10^5 cells/mL in complete medium and incubated for 24 h (100 µL/well). Then the cells were treated with different concentrations of synthesised compounds for 24 h. 150 µL MTT (5 g/L in PBS) was added to each well and the cells were further incubated for 4 h. The supernatant was removed and the cells were lysed with 150 µL/well DMSO. The optical density was measured at 570 nm on a microplate reader (Thermo Scientific, MA, USA).

[2] = tested on: LPS-induced NO production in RAW264.7 macrophages; assay: Inhibition of LPS-induced NO production (Griess)
Method: The RAW 264.7 mouse macrophage cell line was obtained from the China Cell Line Bank (Beijing, China). Cells were cultured in complete medium (DMEM supplemented with 10% heat-inactivated FBS, 3 mM glutamine and antibiotics (100 U/mL penicillin and 100 U/mL streptomycin)) at 37 °C in a humidified incubator containing 5% CO2 and 95% air. Cells were treated with various concentrations of synthesised compounds for 30 min followed by stimulation with LPS ([…]).
Nitrite, a stable product of nitric oxide, was used to assess NO production. To study the effects of the isolated compounds on NO production, RAW264.7 cells were plated at 1 × 10^5 cells/well in a 96-well microplate and incubated overnight. The cells were pre-treated with various concentrations of the test compounds (3, 7.5, 10, 15, 30 or 100 µM) and further co-cultured with 1 µg/mL LPS for 24 h. Un-pre-treated and un-stimulated RAW 264.7 cells were conducted as the blank control group. At different time points, the supernatant (50 µL) was assayed with NO assay kit. The culture supernatant (50 µL) was mixed with an equal volume of the Griess reagent (1% sulphanilamide, 0.1% N-[1-naphthy] ethylenediamine dihydrochloride) and NO production were determined at 540 nm with an ELISAplate reader.

[3] = tested on: phosphorylation of JNK in RAW 264.7 cells; assay: Western blot, LPS-induced phosphorylation of JNK
Method: (§1) RAW 264.7 cells (5 × 10^5 cells/well) plated onto 6-well plates were incubated for 24 h and treated with 7.5, 15.0 or 30.0 µM of compound 6p for 30 min and then stimulated with […] of LPS for 24 h. The cells were collected and washed three times with ice-cold PBS. The cells were treated with a cell lysis buffer [50 mM Tris (pH 7.6), 150 mM NaCl, 5 mM EDTA (pH 8.0), 0.6% NP-40, 1 mM Na3VO4, 20 mM β-glycerophosphate, 1 mM phenylmethylsulfonyl fluoride, 2 mM p-nitrophenyl phosphate, and 1:25 Complete Mini Protease Inhibitor cocktail (Boehringer, Mannheim,Germany)] and kept on ice for 30 min. The cell lysates were centrifuged (12,000 g at 4 °C) for 5 min to obtain a cytosolic fraction. The protein concentration was determined by BCA protein assay kit (Beyotime, Haimen, China). Aliquots of the lysates were separated on 10% sodium dodecyl sulphate (SDS)-polyacrylamide gel electrophoresis (PAGE) and then electro blotted onto a polyvinylidene difluoride (PVDF) membrane. The blots were blocked with 5% (w/v) non-fat dry milk for 2 h at 37 °C, followed by incubation with specific primary antibody at 4 °C overnight. […] Blots were again washed with TTBS and the immune active proteins were detected using ECL plus (Thermo, USA). […] Results are expressed as the relative ratio of the specific band compared with the internal reference.

[4] = tested on: phosphorylation of ERK in RAW 264.7 cells; assay: Western blot, LPS-induced phosphorylation of ERK
Method: as §1

[5] = tested on: phosphorylation of p38 in RAW 264.7 cells; assay: Western blot, LPS-induced phosphorylation of p38; conditions: 30 µM, p < .01
Method: as §1

## COc1cc(Cn2c(=O)c3nnc(C(N)=O)n3c3ccccc32)cc(OC)c1OC [6p, 5-(3,4,5-trimethoxybenzyl)-4-oxo-4,5-dihydro-[1,2, 4]triazolo[4,3-a]quinoxaline-1-carboxamide]
[1]
  viability at 24 h, 30 µM: 83.7 ± 1.53%
[2]; 3 µM, p < .001 vs LPS alone
  inhibition of NO production: significantly inhibit
[2]; Mus musculus, RAW264.7, 10 µM, LPS 1 µg/mL, 24 h, read-out: NO inhibitory activity (% inhibition)
  inhibition at 10 µM: 38.8%
[3]; 30 µM, p < .001
  phosphorylation of JNK: markedly diminished
[3]; 7.5, 15 and 30 µM
  LPS-induced phosphorylation of JNK, concentration dependence: concentration-dependent manner
[4]; 30 µM, p < .001
  phosphorylation of ERK: markedly diminished
[4]; 7.5, 15 and 30 µM
  LPS-induced phosphorylation of ERK, concentration dependence: concentration-dependent manner
[5]
  phosphorylation of p38: markedly diminished
